From patent US10849874B2, “Use of composition for modulating angiogenesis” (National Sun Yat-sen University, priority 2015, dated 2020)

What was measured:
diabetic incised wound = assay: Healing of diabetic incised wound (wound appearance and wound area); assay type: in vivo, Male Wistar rats; details: STZ-diabetic rats
Method: (a) Preparation of Animal and Operation of Incised Wound in Diabetic Rat:
Male Wistar rats (400-450 g) were used in this experiment. The induction of diabetes was performed by using a citrate buffer solution to prepare streptozotocin (STZ, catalog No. 85882 FLUKA, Sigma, St. Louis, Mo., USA). The rats were anesthetized by 2.5% isoflurane and administered with STZ (60 mg/kg) by tail intravenous injection. A week after STZ injection, those rats with blood glucose levels more than 250 mg/dl were identified as successfully diabetic inducted rats. […] After the surgery of the incision of full-layered skins, the rats were randomly divided into two groups: (1) diabetic incised wound group (administered a normal lotion); and (2) EXC-B treating group (administered a lotion containing excavatolide B). The EXC-B treating group was treated with 1 mg/0.2 ml of excavatolide B in the lotion daily.
(§1) (c) Wound Observation and Area Calculation:
After being burned, the rats were anesthetized and then taken pictures according to experimentally designed dates. A series of pictures were taken by a digital camera (Coolpix P6000, Nikon, Japan) under the same condition (the diaphragm is 7.2, and the camera shutter is 1/60). A digital image capture system software (Diagnostic Instruments, Inc., Sterling Heights, Mich., U.S.A.) was used to analyze the captured wound pictures to calculate the wound area. […]

burn wound = assay: Healing of burn wound (wound appearance and wound area); assay type: in vivo, Male Wistar rats; details: rats; for wound healing depended on time (burned restoring area, area under the curve) compared to burn wound group and lotion treating group: day 0-27 (FIG. 4)
Method: (b) Preparation of Animal and Operation of Burn Wound:
Male Wistar rats (400-450 g) were used in this experiment. After the rats were anesthetized by 2.5% isoflurane, the present invention selected four burned locations (two locations beneath the scapula of the rat and two locations in the midline of the lumbar spine) on the back of the anesthetized rat. The skins of the burned locations were tightened, and a copper block (2×2 cm) which was preheated to 175° C. by a dry bath was used to closely touch these skins of the locations for 10 seconds to form burn wounds of full-layered skins. The copper block was appropriately moved in order to form a quadrilateral form of burn wound during the burning process. Attention was paid not to add extra pressure on the copper block in order to ensure the same burn pressure each time during the burning process.
as §1
After being burned, the rats were anesthetized and then taken pictures according to experimentally designed dates. A series of pictures were taken by a digital camera (Coolpix P6000, Nikon, Japan) under the same condition (the diaphragm is 7.2, and the camera shutter is 1/60). A digital image capture system software (Diagnostic Instruments, Inc., Sterling Heights, Mich., U.S.A.) was used to analyze the captured wound pictures to calculate the wound area. The data of the wound area at each observation point were respectively presented at percentage of the wound area relative to day zero.

burn wound tissue = assay: HE staining of tissue section of burn wound; assay type: in vivo, Male Wistar rats; details: rats, lotion containing EXC-B; HE stained tissue section (FIG. 5)
Method: Pathologic Tissue Slice and HE Staining
After the rats had suffered injuries for specific days according to experimental design they were humanely sacrificed, PBS containing heparin (0.2 U/ml) at 4 degrees Celsius was injected into aorta until PBS carrying no color flowed out of the vein. 4% paraformaldehyde at 4° C. was injected to fasten it, the wounded area was carefully taken out by surgical blades and immersed into 10% Formalin fixing solution to be reserved at 4° C. and fixed for several days. Next, the fixed tissue was dehydrated and wax infiltrated. The skin tissue was dehydrated and wax infiltrated by utilizing a tissue automatic processing system. Afterwards, the tissue was embedded by a paraffin embedding machine into paraffin blocks. After tissue blocks were sliced through a paraffin microtome, tissue slices were stained by using hematoxylin and eosin stain. Upon completion, tissue slices were mounted by micro-mount, and completed sample slices then were placed on an optical microscope for observation, the sample slices were further photographed and recorded by the digital image capture system.

[1] = test system: vascular endothelial growth factor (VEGF); assay: Staining of VEGF expression level in tissue of burn wound; assay type: in vivo, rat; details: rats, lotion containing EXC-B
Method: (§2) (b) Immunohistochemistry Staining:
(§3) Mice were scarified by cervical dislocation. The skin tissues of the backs of the mice were collected, fixed with formalin buffer and embedded in paraffin. The tissue sections were treated with a graded alcohol bath after the paraffin-embedded tissue sections (2 μm) were deparaffinized by xylene. Next, the sections reacted with 0.3% hydrogen peroxide for 30 minutes to remove endogenous peroxidase. After the paraffin-embedded tissue sections reacted with a protein K in a 4% phosphate buffer for 20 minutes at 37° C., the paraffin-embedded tissue sections were washed with 4% phosphate buffer and then blocked with horse serum diluted by phosphate buffer for 1 hr. Next, the sections were incubated with a diluted target protein antibody for 18-20 hr at 4° C. in a humid environment. After recycling the antibody, the horse serum was reused to incubate the sections for 1 hr and the sections subsequently reacted with an added corresponding secondary antibody for 90 minutes. After the sections reacted with ABC kit, DBA was used to produce color reaction, and the sections were air-dried with a graded alcohol bath and covered with a cover glass. The completed sample section was placed in an optical microscope (DM 6000, Leica Inc, Germany) and a stereomicroscope (APO Z16, Leica Inc. Singapore). […]

[2] = test system: angiogenesis (blood vessels marked by vWF); assay: Staining of angiogenesis (blood vessels marked by vWF) in tissue of burn wound; assay type: in vivo, rat; details: rats, lotion containing EXC-B, versus silver sulphadiazine treating group (FIG. 6)
Method: as §2, §3

atopic eczema = assay: DNCB-induced atopic eczema model, image analysis of skin appearance; assay type: in vivo; details: balb/c mice
Method: (a) Preparation of Animal and Induction of Atopic Eczema:
(§4) The balb/c mice were used in this experiment. The method for inducing atopic eczema comprised: (1) prepared 1% DNCB in olive oil/acetone (1:4); and (2) applied 1% DNCB on the shaved skins of the backs of balb/c mice at day 1, 3, 9, and 11, respectively. The balb/c mice were randomly divided into three groups: (A) the control group; (B) the atopic eczema group; and (C) the EXC-B treating group. The EXC-B treating group was treated with excavatolide B for seven consecutive days starting from day 15. Next, the present invention assessed the treating effect of EXC-B on atopic eczema by image analysis of the appearance.

VEGF = assay: Staining of VEGF expression level in tissue of atopic eczema; assay type: in vivo; details: balb/c mice, 50 μg/0.2 ml of excavatolide B in lotion (FIG. 8)
Method: as §4, §2
(§5) Mice were scarified by cervical dislocation. The skin tissues of the backs of the mice were collected, fixed with formalin buffer and embedded in paraffin. The tissue sections were treated with a graded alcohol bath after the paraffin-embedded tissue sections (2 μm) were deparaffinized by xylene. Next, the sections reacted with 0.3% hydrogen peroxide for 30 minutes to remove endogenous peroxidase. After the paraffin-embedded tissue sections reacted with a protein K in a 4% phosphate buffer for 20 minutes at 37° C., the paraffin-embedded tissue sections were washed with 4% phosphate buffer and then blocked with horse serum diluted by phosphate buffer for 1 hr. […]

substance P = assay: Staining of itchy factor (substance P as marker) in atopic eczema; assay type: in vivo; details: balb/c mice, 50 μg/0.2 ml of excavatolide B in lotion (FIG. 9)
Method: as §4, §2, §5

filaggrin = assay: Staining of regulating factor for skin barrier function (filaggrin as marker) in atopic eczema; assay type: in vivo; details: balb/c mice, 50 μg/0.2 ml of excavatolide B in lotion (FIG. 10)
Method: as §4, §2, §5

## excavatolide B [EXC-B]
Diabetic incised wound; 1 mg/0.2 ml of excavatolide B in lotion daily, topical, appearance at 4-25 days after incised injury (FIG. 1)
  wound healing (appearance, image analysis) compared to the diabetic incised wound group: significantly improved
Diabetic incised wound; 1 mg/0.2 ml of excavatolide B in lotion, at day 7, 21, and 28 (FIG. 2)
  wound healing (wound restoring area depended on time) compared to the diabetic incised wound group: significantly improved
Burn wound; 10 μg EXC-B treating group
  wound healing depended on time (burned restoring area, area under the curve) compared to burn wound group and lotion treating group: significantly accelerate wound healing
Burn wound; 10 μg/0.2 ml of EXC-B in lotion, appearance at 2-24 days after burn injury (FIG. 3 K-O)
  wound healing (appearance, image analysis) after burn injury: significantly improved
Burn wound; 50 μg EXC-B treating group
  wound healing depended on time (burned restoring area, area under the curve) compared to burn wound group and lotion treating group: significantly accelerate wound healing
Burn wound; 50 μg/0.2 ml of EXC-B in lotion, appearance at 2-24 days after burn injury (FIG. 3 P-T)
  wound healing (appearance, image analysis) after burn injury: significantly improved
Burn wound tissue
  tissue changes induced by burn injury (thickening of epithelial layer, damages to dermis, infiltration of neutrophils): significantly improved
[1]; versus lotion treating group (FIG. 6)
  expression level of the VEGF of the burned tissue: substantially increased
[1]; versus silver sulphadiazine treating group (FIG. 6)
  treating effect on VEGF expression of the burned tissue relative to silver sulphadiazine: better than the effect of the silver sulphadiazine
[2]
  rate of vascular proliferation (blood vessels marked by vWF): higher than that of the silver sulphadiazine treating group
Atopic eczema; 50 μg/0.2 ml of excavatolide B in lotion (FIG. 7)
  side effects of the clinical treatment, such as skin dryness and albinism: no side effects of the clinical treatment were observed
Atopic eczema; 50 μg/0.2 ml of excavatolide B in lotion, seven consecutive days from day 15 (FIG. 7)
  condition of the treated skin (inflammations, scratched wounds): significantly better than the skin of the atopic eczema
VEGF
  increased expression of the VEGF in the tissue of atopic eczema: inhibited
Substance P
  itchy factors (the substance P as the marker) in the tissue of the skin: significantly inhibited
filaggrin
  decrease of the regulating factor (filaggrin as the marker) for skin barrier function: recovered
